Laboratory results from US12371436B2, “Substituted benzodiazoliums as ENaC inhibitors” (ENTERPRISE THERAPEUTICS LIMITED, priority 2016, dated 2025).
Counter-ions that a name gives are not always drawn.

Key:
[1] = Bronchoalveolar lavage (BAL) procedure: compound levels after intratracheal administration; type: in vivo; conditions: bronchoalveolar lavage fluid (BAL), other: intratracheal, 0.1 mg/kg, rat, 0.1 mg/mL solution in 5% dextrose, 1 mL/Kg, BAL 6 hours after administration, LC/MS/MS
Protocol: Example 69—Bronchoalveolar Lavage (BAL) Procedure A 0.1 mg/mL solution of ENaC inhibitor in 5% dextrose was administered intratracheally to a rat weighing 225-250 g. A volume of 1 mL/Kg was used. After 6 hours, lungs were lavaged with 3×4 mL of sterile saline. A 1 mL aliquot was subsequently snap frozen. Lungs were excised, weighed and snap frozen. Compound levels in the BAL and lung tissue were subsequently determined using LC/MS/MS bioanalysis.

[2] = molecular target: T1, ENaC (Homo sapiens, UniProt P37088+P51168+P51170); test: Short circuit current assay to determine ENaC blocker potency in human bronchial epithelial cells; type: cell-based; conditions: 50% inhibition of total amiloride-sensitive ISC, apical addition, read-out: Averages.ENaC IC50 (nM) Avg
T1 construct: host or cells: primary human bronchial epithelial cells (HBECs) differentiated at air-liquid interface
T1 sequence (P37088 1-669): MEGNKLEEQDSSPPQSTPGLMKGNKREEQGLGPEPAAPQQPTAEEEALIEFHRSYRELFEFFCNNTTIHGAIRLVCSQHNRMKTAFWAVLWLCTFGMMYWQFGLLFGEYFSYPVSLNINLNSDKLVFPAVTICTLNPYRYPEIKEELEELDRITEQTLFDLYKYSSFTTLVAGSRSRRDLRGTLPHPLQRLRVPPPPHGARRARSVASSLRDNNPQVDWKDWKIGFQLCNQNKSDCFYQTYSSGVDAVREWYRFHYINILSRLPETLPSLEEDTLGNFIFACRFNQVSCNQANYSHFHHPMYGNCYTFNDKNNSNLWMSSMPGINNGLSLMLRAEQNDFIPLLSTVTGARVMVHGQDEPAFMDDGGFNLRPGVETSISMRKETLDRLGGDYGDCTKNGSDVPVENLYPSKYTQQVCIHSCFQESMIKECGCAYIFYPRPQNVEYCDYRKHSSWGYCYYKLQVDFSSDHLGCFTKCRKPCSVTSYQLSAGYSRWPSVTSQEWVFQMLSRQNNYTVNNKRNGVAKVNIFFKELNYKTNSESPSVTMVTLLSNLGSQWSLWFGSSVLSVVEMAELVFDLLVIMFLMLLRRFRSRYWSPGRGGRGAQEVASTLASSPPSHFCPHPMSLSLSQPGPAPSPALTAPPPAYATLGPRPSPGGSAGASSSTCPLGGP
T1 sequence (P51168 1-640): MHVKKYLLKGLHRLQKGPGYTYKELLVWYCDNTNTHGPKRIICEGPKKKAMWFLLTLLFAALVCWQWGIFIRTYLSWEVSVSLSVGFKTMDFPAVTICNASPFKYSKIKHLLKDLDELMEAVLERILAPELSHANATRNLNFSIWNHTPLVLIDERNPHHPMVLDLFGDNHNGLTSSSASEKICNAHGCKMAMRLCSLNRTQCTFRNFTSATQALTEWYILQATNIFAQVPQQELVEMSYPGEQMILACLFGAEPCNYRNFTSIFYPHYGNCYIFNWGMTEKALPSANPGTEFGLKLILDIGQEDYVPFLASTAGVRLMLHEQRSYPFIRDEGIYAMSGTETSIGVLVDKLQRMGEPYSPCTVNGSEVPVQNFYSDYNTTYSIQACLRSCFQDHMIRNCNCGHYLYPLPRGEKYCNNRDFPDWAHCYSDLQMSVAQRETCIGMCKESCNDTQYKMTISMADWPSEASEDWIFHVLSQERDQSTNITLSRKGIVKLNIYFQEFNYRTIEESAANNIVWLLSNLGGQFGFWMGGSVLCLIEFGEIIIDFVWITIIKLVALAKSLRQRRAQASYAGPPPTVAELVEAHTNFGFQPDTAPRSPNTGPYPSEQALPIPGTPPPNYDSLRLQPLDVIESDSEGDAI
T1 sequence (P51170 1-649): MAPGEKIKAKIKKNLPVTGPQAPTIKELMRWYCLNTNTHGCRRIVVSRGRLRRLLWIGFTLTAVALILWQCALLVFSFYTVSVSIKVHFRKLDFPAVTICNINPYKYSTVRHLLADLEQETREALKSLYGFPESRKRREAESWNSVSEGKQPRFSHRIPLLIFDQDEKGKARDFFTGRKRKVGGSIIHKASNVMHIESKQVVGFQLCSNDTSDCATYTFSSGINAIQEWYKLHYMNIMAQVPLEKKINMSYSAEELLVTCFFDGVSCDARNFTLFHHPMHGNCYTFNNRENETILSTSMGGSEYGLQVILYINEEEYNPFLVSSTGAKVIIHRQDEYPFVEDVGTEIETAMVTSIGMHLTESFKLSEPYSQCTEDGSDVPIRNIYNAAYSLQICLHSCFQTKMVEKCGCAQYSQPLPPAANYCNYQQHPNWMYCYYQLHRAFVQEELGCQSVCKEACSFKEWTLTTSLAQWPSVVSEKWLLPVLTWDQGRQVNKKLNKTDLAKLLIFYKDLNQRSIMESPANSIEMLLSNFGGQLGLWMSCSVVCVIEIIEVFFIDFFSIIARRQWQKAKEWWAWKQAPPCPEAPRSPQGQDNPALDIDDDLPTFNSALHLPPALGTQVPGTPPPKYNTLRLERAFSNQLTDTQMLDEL
Summary of the method: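 Primary human bronchial epithelial cells at air-liquid interface (days 14–21) were voltage-clamped at 0 mV in Ussing chambers (Ringer, pH 7.4, 37° C.). Compounds were added apically as cumulative concentrations, then 10 μM amiloride. IC50 was taken as 50% inhibition of amiloride-sensitive ISC.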

concentration at 6 h [1] [ng/mL]	IC50 [2] [nM]	Structure (SMILES)
260	35	CCn1c(CNC(=O)c2nc3cc[nH]c3nc2N)[n+](CC)c2ccc(C(=O)N3CCC(N(C[C@H](O)[C@@H](O)[C@H](O)[C@H](O)CO)C[C@H](O)[C@@H](O)[C@H](O)[C@H](O)CO)CC3)cc21 [Example 50, 2-[({3-amino-5H-pyrrolo[2,3-b]pyrazin-2-yl}formamido)methyl]-6-(4-{bis[(2S,3R,4R,5R)-2,3,4,5,6-pentahydroxyhexyl]amino}piperidine-1-carbonyl)-1,3-diethyl-1H-1,3-benzodiazol-3-ium]
302	69	CCn1c(CNC(=O)c2nc3cc[nH]c3nc2N)[n+](CC)c2ccc(C(=O)N3CCC(CN(C[C@H](O)[C@@H](O)[C@H](O)[C@H](O)CO)C[C@H](O)[C@@H](O)[C@H](O)[C@H](O)CO)CC3)cc21 [Example 52, 2-[({3-amino-5H-pyrrolo[2,3-b]pyrazin-2-yl}formamido)methyl]-5-[4-({bis[(2S,3R,4R,5R)-2,3,4,5,6-pentahydroxyhexyl]amino}methyl)piperidine-1-carbonyl]-1,3-diethyl-1H-1,3-benzodiazol-3-ium]
139	49	CCn1c(CNC(=O)c2nc3cc[nH]c3nc2N)[n+](CC)c2ccc(C(=O)N3CC[C@H](N(C[C@H](O)[C@@H](O)[C@H](O)[C@H](O)CO)C[C@H](O)[C@@H](O)[C@H](O)[C@H](O)CO)C3)cc21 [Example 54, 2-[({3-amino-5H-pyrrolo[2,3-b]pyrazin-2-yl}formamido)methyl]-6-[(3S)-3-{bis[(2S,3R,4R,5R)-2,3,4,5,6-pentahydroxyhexyl]amino}pyrrolidine-1-carbonyl]-1,3-diethyl-1H-1,3-benzodiazol-3-ium]
284	78	CCn1c(CNC(=O)c2nc3cc[nH]c3nc2N)[n+](CC)c2ccc(C(=O)N[C@H]3CC[C@H](N(C[C@H](O)[C@@H](O)[C@H](O)[C@H](O)CO)C[C@H](O)[C@@H](O)[C@H](O)[C@H](O)CO)CC3)cc21 [Example 55, 2-[({3-amino-5H-pyrrolo[2,3-b]pyrazin-2-yl}formamido)methyl]-1,3-diethyl-6-{[(1r,4r)-4-{bis[(2S,3R,4R,5R)-2,3,4,5,6-pentahydroxyhexyl]amino}cyclohexyl]carbamoyl}-1H-1,3-benzodiazol-3-ium]
283	15	CCn1c(CNC(=O)c2nc3cc[nH]c3nc2N)[n+](CC)c2ccc(C(=O)N[C@H]3CC[C@@H](N(C[C@H](O)[C@@H](O)[C@H](O)[C@H](O)CO)C[C@H](O)[C@@H](O)[C@H](O)[C@H](O)CO)CC3)cc21 [Example 56, 2-[({3-amino-5H-pyrrolo[2,3-b]pyrazin-2-yl}formamido)methyl]-1,3-diethyl-6-{[(1s,4s)-4-{bis[(2S,3R,4R,5R)-2,3,4,5,6-pentahydroxyhexyl]amino}cyclohexyl]carbamoyl}-1H-1,3-benzodiazol-3-ium]
283	36	CCn1c(CNC(=O)c2nc3cc[nH]c3nc2N)[n+](CC)c2ccc(C(=O)N(C)CCCN(C[C@H](O)[C@@H](O)[C@H](O)[C@H](O)CO)C[C@H](O)[C@@H](O)[C@H](O)[C@H](O)CO)cc21 [Example 57, 2-[({3-amino-5H-pyrrolo[2,3-b]pyrazin-2-yl}formamido)methyl]-6-[(3-{bis[(2S,3R,4R,5R)-2,3,4,5,6-pentahydroxyhexyl]amino}propyl)(methyl)carbamoyl]-1,3-diethyl-1H-1,3-benzodiazol-3-ium]
256	78	CCn1c(CNC(=O)c2nc3cc[nH]c3nc2N)[n+](CC)c2ccc(C(=O)NCCN(C[C@H](O)[C@@H](O)[C@H](O)[C@H](O)CO)C[C@H](O)[C@@H](O)[C@H](O)[C@H](O)CO)cc21 [Example 58, 2-[({3-amino-5H-pyrrolo[2,3-b]pyrazin-2-yl}formamido)methyl]-6-[(2-{bis[(2S,3R,4R,5R)-2,3,4,5,6-pentahydroxyhexyl]amino}ethyl)carbamoyl]-1,3-diethyl-1H-1,3-benzodiazol-3-ium]
197	171	CCn1c(CNC(=O)c2nc3cc[nH]c3nc2N)[n+](CC)c2ccc(C(=O)NCCOCCOCCOCCN(C[C@H](O)[C@@H](O)[C@H](O)[C@H](O)CO)C[C@H](O)[C@@H](O)[C@H](O)[C@H](O)CO)cc21 [Example 59, 2-[({3-amino-5H-pyrrolo[2,3-b]pyrazin-2-yl}formamido)methyl]-1,3-diethyl-5-{[(14S,15R,16R,17R)-14,15,16,17,18-pentahydroxy-12-[(2S,3R,4R,5R)-2,3,4,5,6-pentahydroxyhexyl]-3,6,9-trioxa-12-azaoctadecan-1-yl]carbamoyl}-1H-1,3-benzodiazol-3-ium]
176	22	CCn1c(CNC(=O)c2nc3cc[nH]c3nc2N)[n+](CC)c2ccc(C(=O)NCCc3ccc(-c4ccc(CCN(C[C@H](O)[C@@H](O)[C@H](O)[C@H](O)CO)C[C@H](O)[C@@H](O)[C@H](O)[C@H](O)CO)cc4)cc3)cc21 [Example 60, 2-[({3-amino-5H-pyrrolo[2,3-b]pyrazin-2-yl}formamido)methyl]-6-({2-[4′-(2-{bis[(2S,3R,4R,5R)-2,3,4,5,6-pentahydroxyhexyl]amino}ethyl)-[1,1′-biphenyl]-4-yl]ethyl}carbamoyl)-1,3-diethyl-1H-1,3-benzodiazol-3-ium]
167	43	CCn1c(CNC(=O)c2nc3cc[nH]c3nc2N)[n+](CC)c2ccc(C(=O)NCC[C@H](NCCCN(C[C@H](O)[C@@H](O)[C@H](O)[C@H](O)CO)C[C@H](O)[C@@H](O)[C@H](O)[C@H](O)CO)C(N)=O)cc21 [Example 61, 2-[({3-amino-5H-pyrrolo[2,3-b]pyrazin-2-yl}formamido)methyl]-6-{[(3S)-3-[(3-{bis[(2S,3R,4R,5R)-2,3,4,5,6-pentahydroxyhexyl]amino}propyl)amino]-3-carbamoylpropyl]carbamoyl}-1,3-diethyl-1H-1,3-benzodiazol-3-ium]
	54	CCn1c(CNC(=O)c2nc3c(C#N)c[nH]c3nc2N)[n+](CC)c2ccc(OC)cc21 [Example 67, 2-[({3-amino-7-cyano-5H-pyrrolo[2,3-b]pyrazin-2-yl}formamido)methyl]-1,3-diethyl-6-methoxy-1H-1,3-benzodiazol-3-ium formate]
